Results on 9 compounds are retold here after ChEMBL document CHEMBL4376864, “Binding Loop Substitutions in the Cyclic Peptide SFTI-1 Generate Potent and Selective Chymase Inhibitors” (J Med Chem, 2020).

What is called pIC50 is −log10 of the IC50, conventionally taken in molar units. In general, pKi refers to the Ki on a negative log10 scale, so that one unit is a factor of ten. A higher pKi goes with a low Ki. The term Ki denotes a measure of affinity in units of concentration, obtained from inhibition or displacement. A higher Ki goes with weaker binding.

pIC50, pKi: −log10 of the molar value. Bridge positions count the residues as written; N and C are the ends. Square brackets hold non-standard residues; d marks the D form. Peptide text beside a SMILES is read from it. Phe(4-tBu) = CC(C)(C)c1ccc(C[C@H](N)C(=O)O)cc1; Bip = N[C@@H](Cc1ccc(-c2ccccc2)cc1)C(=O)O; Nle = CCCC[C@H](N)C(=O)O

Test [1] concerns the target T1, Chymase (Homo sapiens, UniProt P23946).
T1 sequence (P23946 whole entry): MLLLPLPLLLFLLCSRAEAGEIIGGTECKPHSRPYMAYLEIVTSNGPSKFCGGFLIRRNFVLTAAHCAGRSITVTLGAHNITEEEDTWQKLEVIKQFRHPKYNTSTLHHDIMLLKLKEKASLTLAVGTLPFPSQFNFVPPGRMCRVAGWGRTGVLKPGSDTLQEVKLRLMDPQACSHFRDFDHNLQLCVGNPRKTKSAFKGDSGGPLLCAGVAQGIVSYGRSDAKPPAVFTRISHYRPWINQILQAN
The test is described as follows: Inhibition of recombinant human chymase expressed in Pichia pastoris X-33 cells using NleTDY-pNA as substrate assessed as cleavage of pNA at pH 7.2 and 298 K by spectrophotometry analysis.

In test [2] the target is T2, Cathepsin G (Homo sapiens, UniProt P08311).
T2 sequence (P08311 whole entry): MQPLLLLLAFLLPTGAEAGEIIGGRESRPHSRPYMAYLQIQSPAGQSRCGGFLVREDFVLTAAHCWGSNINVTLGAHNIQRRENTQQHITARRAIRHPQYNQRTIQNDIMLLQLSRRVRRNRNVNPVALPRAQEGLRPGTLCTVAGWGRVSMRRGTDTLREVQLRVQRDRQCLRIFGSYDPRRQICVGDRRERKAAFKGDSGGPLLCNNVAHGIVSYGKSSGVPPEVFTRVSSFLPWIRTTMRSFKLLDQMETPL
Kind of test: Inhibition of human cathepsin G using Suc-AAPF-MCA as substrate at pH 7.2 and 298 K measured every 60 secs for 600 secs.

Test [3] has as its target Chymotrypsin (Homo sapiens, UniProt Q99895+P17538+P40313+Q6GPI1). Kind of test: Inhibition of human chymotrypsin using Suc-AAPF-MCA as substrate at pH 8 and 298 K measured every 60 secs for 600 secs. The class given is protein assay.

Regarding `CC[C@H](C)[C@@H]1NC(=O)[C@@H]2CCCN2C(=O)[C@@H]2CCCN2C(=O)[C@H]([C@@H](C)CC)NC(=O)[C@H](CO)NC(=O)[C@H](CCCCN)NC(=O)[C@H]([C@@H](C)O)NC(=O)[C@@H]2CSSC[C@H](NC1=O)C(=O)N[C@@H](Cc1ccccc1)C(=O)N1CCC[C@H]1C(=O)N[C@@H](CC(=O)O)C(=O)NCC(=O)N[C@@H](CCCNC(=N)N)C(=O)N2`, the negative-log IC50 (pIC50) in test [1] is under 5.30.
`CC[C@H](C)[C@@H]1NC(=O)[C@@H]2CCCN2C(=O)[C@@H]2CCCN2C(=O)[C@H](CCC(=O)O)NC(=O)[C@H](CO)NC(=O)[C@H](Cc2ccc(O)cc2)NC(=O)[C@H](C)NC(=O)[C@@H]2CSSC[C@H](NC1=O)C(=O)N[C@@H](Cc1ccccc1)C(=O)N1CCC[C@H]1C(=O)N[C@@H](CC(=O)O)C(=O)NCC(=O)N[C@@H](Cc1ccccc1)C(=O)N2` (cyclo(AYSEPPICFPDGFC); disulfide 8-14) gave a negative logarithm of the Ki (pKi) in test [2] of over 10.00. This compound had a Ki in test [3] of 0.42 nM.
Turning to `CC[C@H](C)[C@@H]1NC(=O)[C@@H]2CCCN2C(=O)[C@@H]2CCCN2C(=O)[C@H](Cc2ccc(-c3ccccc3)cc2)NC(=O)[C@H](CO)NC(=O)[C@H](Cc2ccc(O)cc2)NC(=O)[C@H](C)NC(=O)[C@@H]2CSSC[C@H](NC1=O)C(=O)N[C@@H](Cc1ccccc1)C(=O)N1CCC[C@H]1C(=O)N[C@@H](CC(=O)O)C(=O)NCC(=O)N[C@@H](Cc1ccccc1)C(=O)N2` (cyclo(AYS[Bip]PPICFPDGFC); disulfide 8-14), in test [2], the negative logarithm of the Ki (pKi) is 8.13. Also, the Ki in test [3] is reported as 1.5 nM.
As for `CC[C@H](C)[C@@H]1NC(=O)[C@@H]2CCCN2C(=O)[C@@H]2CCCN2C(=O)[C@H]([C@@H](C)CC)NC(=O)[C@H](CO)NC(=O)[C@H](Cc2ccc(O)cc2)NC(=O)[C@H](CC(=O)O)NC(=O)[C@@H]2CSSC[C@H](NC1=O)C(=O)N[C@@H](Cc1ccccc1)C(=O)N1CCC[C@H]1C(=O)N[C@@H](CC(=O)O)C(=O)NCC(=O)N[C@@H](Cc1ccccc1)C(=O)N2` (cyclo(CDYSIPPICFPDGF); disulfide 1-9), the negative-log IC50 (pIC50) in test [1] is under 5.30.
`CCCC[C@@H]1NC(=O)CNC(=O)[C@H](CC(=O)O)NC(=O)[C@@H]2CCCN2C(=O)[C@H](Cc2ccccc2)NC(=O)[C@@H]2CSSC[C@H](NC1=O)C(=O)N[C@@H](CC(=O)O)C(=O)N[C@@H](Cc1ccc(O)cc1)C(=O)N[C@@H](CO)C(=O)N[C@@H]([C@@H](C)CC)C(=O)N1CCC[C@H]1C(=O)N1CCC[C@H]1C(=O)N[C@@H]([C@@H](C)CC)C(=O)N2` (cyclo(CDYSIPPICFPDG[Nle]); disulfide 1-9): the negative-log IC50 (pIC50) in test [1] is under 5.30.
In test [2], `CC[C@H](C)[C@@H]1NC(=O)[C@@H]2CCCN2C(=O)[C@@H]2CCCN2C(=O)[C@H](CCC(=O)O)NC(=O)[C@H](CO)NC(=O)[C@H](Cc2ccc(O)cc2)NC(=O)[C@H](CCC(N)=O)NC(=O)[C@@H]2CSSC[C@H](NC1=O)C(=O)N[C@@H](Cc1ccccc1)C(=O)N1CCC[C@H]1C(=O)N[C@@H](CC(=O)O)C(=O)NCC(=O)N[C@@H](CCCNC(=N)N)C(=O)N2` (cyclo(CFPDGRCQYSEPPI); disulfide 1-7) gave a pKi of 9.59. The compound also had an inhibition constant (Ki) in test [3] of 150 nM.
As for `CC(C)(C)c1ccc(C[C@@H]2NC(=O)[C@H](CCC(N)=O)NC(=O)[C@@H]3CSSC[C@H](NC(=O)[C@H](CCC(=O)O)NC(=O)[C@@H]4CCCN4C(=O)[C@@H]4CCCN4C(=O)[C@H](CCC(=O)O)NC(=O)[C@H](CO)NC2=O)C(=O)N[C@@H](Cc2ccccc2)C(=O)N2CCC[C@H]2C(=O)N[C@@H](CC(=O)O)C(=O)NCC(=O)N[C@@H](CCCNC(=N)N)C(=O)N3)cc1` (cyclo(CFPDGRCQ[Phe(4-tBu)]SEPPE); disulfide 1-7), the pIC50 in test [1] is under 5.00.
In test [2], `C[C@@H](O)[C@@H]1NC(=O)[C@@H]2CSSC[C@H](NC(=O)[C@H](CCC(=O)O)NC(=O)[C@@H]3CCCN3C(=O)[C@@H]3CCCN3C(=O)[C@H](CCC(=O)O)NC(=O)[C@H](CO)NC(=O)[C@H](Cc3ccc(O)cc3)NC1=O)C(=O)N[C@@H](Cc1ccccc1)C(=O)N1CCC[C@H]1C(=O)N[C@@H](CC(=O)O)C(=O)NCC(=O)N[C@@H](CCCNC(=N)N)C(=O)N2` (cyclo(CFPDGRCTYSEPPE); disulfide 1-7) gave a pKi of 7.85. Further, in test [3], the Ki is recorded as 11 nM.
Regarding `CC[C@H](C)[C@@H]1NC(=O)[C@@H]2CCCN2C(=O)[C@@H]2CCCN2C(=O)[C@H](CCC(=O)O)NC(=O)[C@H](CO)NC(=O)[C@H](Cc2ccc(O)cc2)NC(=O)[C@H]([C@@H](C)O)NC(=O)[C@@H]2CSSC[C@H](NC1=O)C(=O)N[C@@H](Cc1ccccc1)C(=O)N1CCC[C@H]1C(=O)N[C@@H](CC(=O)O)C(=O)NCC(=O)N[C@@H](CCCNC(=N)N)C(=O)N2` (cyclo(CFPDGRCTYSEPPI); disulfide 1-7), in test [2], the pKi is 8.09. In test [3], the Ki is recorded as 0.88 nM.
